Reference: patent US20090270413A1, “DI-T-BUTYLPHENYL PIPERAZINES AS CALCIUM CHANNEL BLOCKERS” (priority 2008, published 2009)

Assays:
[1] = target: T1, Human Cav2.2 channels (Homo sapiens, UniProt Q00975); test: Block of Cav2.2 (N-type) channels expressed in HEK293 cells; type: cell-based; settings: for inhibition at 10 µM / inhibition at 30 µM: HEK293; for inhibition at 10 µM: read-out: Cav 2.2 % Inh @ 10 μM; for inhibition at 30 µM: read-out: Cav 2.2 % Inh @ 30 μM; for IC50: read-out: Cav 2.2 IC50
T1 construct: expressed in transfected cells
Method in brief: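 HEK293 cells co-expressing Cav2.2 with α2δ, β subunits and Kir2.3. Fluo-4 calcium influx: 30 min compound incubation at 25 °C in 4 mM (resting) or 12, 25 or 30 mM K+ (open/inactivated), then 70 mM K+ depolarisation. IonWorks HT barium-current patch clamp: 5 min compound, 2 Hz train of twenty 25 ms steps to +20 mV, first versus 20th pulse block.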

[2] = target: T2, Cav3.1 (T-type channel alpha-1G) (Homo sapiens, UniProt O43497); test: T-type calcium channel voltage-clamp assay, Cav3.1; type: cell-based; settings: read-out: Cav 3.1 IC50
T2 construct: expressed in transfected cells; host or cells: HEK 293
T2 sequence (O43497 whole entry): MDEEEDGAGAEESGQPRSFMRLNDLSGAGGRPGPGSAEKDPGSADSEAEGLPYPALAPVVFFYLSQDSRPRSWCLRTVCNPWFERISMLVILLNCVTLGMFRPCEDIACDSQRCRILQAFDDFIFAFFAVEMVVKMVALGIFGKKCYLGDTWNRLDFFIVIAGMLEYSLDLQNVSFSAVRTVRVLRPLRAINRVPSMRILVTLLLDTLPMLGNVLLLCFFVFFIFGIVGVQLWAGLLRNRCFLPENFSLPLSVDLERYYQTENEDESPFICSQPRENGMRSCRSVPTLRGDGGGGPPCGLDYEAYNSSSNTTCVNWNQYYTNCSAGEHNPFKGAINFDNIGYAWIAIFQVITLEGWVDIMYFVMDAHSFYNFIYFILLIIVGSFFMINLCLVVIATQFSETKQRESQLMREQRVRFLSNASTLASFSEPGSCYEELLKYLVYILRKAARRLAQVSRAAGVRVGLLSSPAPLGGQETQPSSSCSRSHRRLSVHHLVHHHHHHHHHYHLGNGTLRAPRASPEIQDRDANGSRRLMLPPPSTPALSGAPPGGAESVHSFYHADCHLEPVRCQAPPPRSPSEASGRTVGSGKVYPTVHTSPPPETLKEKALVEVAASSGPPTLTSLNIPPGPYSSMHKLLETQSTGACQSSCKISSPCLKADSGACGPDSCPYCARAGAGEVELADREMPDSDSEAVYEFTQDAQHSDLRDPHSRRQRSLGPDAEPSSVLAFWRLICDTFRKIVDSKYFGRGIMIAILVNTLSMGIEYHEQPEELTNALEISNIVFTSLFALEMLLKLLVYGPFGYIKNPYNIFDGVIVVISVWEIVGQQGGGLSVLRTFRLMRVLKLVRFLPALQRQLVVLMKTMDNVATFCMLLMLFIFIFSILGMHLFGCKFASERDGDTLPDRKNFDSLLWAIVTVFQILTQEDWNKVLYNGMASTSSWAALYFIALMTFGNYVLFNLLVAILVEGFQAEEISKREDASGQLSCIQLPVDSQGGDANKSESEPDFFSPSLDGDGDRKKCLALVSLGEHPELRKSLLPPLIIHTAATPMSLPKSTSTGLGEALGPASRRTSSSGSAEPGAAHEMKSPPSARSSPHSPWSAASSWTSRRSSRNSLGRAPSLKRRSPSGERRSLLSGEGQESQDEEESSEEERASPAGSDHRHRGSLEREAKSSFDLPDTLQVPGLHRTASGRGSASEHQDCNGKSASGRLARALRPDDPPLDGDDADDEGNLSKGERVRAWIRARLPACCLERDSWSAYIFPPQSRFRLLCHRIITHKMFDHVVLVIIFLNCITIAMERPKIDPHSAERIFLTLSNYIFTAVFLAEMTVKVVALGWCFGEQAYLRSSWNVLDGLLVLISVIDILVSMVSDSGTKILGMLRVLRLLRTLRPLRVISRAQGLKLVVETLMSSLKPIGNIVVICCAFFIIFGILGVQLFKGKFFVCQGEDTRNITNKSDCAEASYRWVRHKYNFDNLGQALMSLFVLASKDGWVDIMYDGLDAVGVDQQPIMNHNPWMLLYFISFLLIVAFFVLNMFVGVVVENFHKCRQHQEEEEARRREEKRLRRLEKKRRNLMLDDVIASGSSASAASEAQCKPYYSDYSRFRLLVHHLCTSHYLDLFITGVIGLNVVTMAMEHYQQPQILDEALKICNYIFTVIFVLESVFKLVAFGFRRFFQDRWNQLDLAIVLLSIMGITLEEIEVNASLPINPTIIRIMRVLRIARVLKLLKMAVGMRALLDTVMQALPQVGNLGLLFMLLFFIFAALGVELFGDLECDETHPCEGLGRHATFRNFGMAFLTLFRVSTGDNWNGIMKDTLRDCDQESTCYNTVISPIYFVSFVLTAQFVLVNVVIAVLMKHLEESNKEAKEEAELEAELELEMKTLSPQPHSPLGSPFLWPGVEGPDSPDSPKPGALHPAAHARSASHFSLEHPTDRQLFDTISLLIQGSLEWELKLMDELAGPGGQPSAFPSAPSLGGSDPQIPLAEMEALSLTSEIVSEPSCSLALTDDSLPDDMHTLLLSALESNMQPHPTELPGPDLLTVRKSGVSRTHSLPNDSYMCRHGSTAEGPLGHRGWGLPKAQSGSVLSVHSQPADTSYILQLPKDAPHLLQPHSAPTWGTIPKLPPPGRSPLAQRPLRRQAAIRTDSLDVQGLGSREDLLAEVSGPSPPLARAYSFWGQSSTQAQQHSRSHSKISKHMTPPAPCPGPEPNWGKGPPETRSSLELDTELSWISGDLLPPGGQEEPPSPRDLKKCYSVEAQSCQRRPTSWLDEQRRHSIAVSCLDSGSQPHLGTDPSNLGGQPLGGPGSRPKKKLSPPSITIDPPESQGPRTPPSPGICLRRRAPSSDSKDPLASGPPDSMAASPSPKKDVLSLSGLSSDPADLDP
Procedure: (§1) The T-type calcium channel blocking activity of the compounds of this invention may be readily determined using the methodology well known in the art described by Xia, et al., Assay and Drug Development Tech., 1 (5), 637-645 (2003).
(§2) In a typical experiment ion channel function from HEK 293 cells expressing the T-type channel alpha-1G, H, or I (CaV 3.1, 3.2, 3.3) is recorded to determine the activity of compounds in blocking the calcium current mediated by the T-type channel alpha-1G, H, or I (CaV 3.1, 3.2, 3.3). In this T-type calcium (Ca^2+) antagonist voltage-clamp assay calcium currents are elicited from the resting state of the human alpha-1G, H, or I (CaV 3.1, 3.2, 3.3) calcium channel as follows. Sequence information for T-type (Low-voltage activated) calcium channels are fully disclosed in e.g., U.S. Pat. No. 5,618,720, U.S. Pat. No. 5,686,241, U.S. Pat. No. 5,710,250,U.S. Pat. No. 5,726,035, U.S. Pat. No. 5,792,846, U.S. Pat. No. 5,846,757, U.S. Pat. No. 5,851,824, U.S. Pat. No. 5,874,236, U.S. Pat. No. 5,876,958, U.S. Pat. No. 6,013,474, U.S. Pat. No. 6,057,114, U.S. Pat. No. 6,096,514, WO 99/28342, and J. Neuroscience, 19 (6):1912-1921 (1999). Cells expressing the t-type channels were grown in H3D5 growth media which is comprised DMEM, 6% bovine calf serum (HYCLONE), 30 micromolar Verapamil, 200 microgram/ml Hygromycin B, 1× Penicillin/Streptomycin. Glass pipettes are pulled to a tip diameter of 1-2 micrometer on a pipette puller. The pipettes are filled with the intracellular solution and a chloridized silver wire is inserted along its length, which is then connected to the headstage of the voltage-clamp amplifier. Trypsinization buffer was 0.05% Trypsin, 0.53 mM EDTA. The extracellular recording solution consists of (mM): 130 mM NaCl, 4 mM KCl, 1 mM MgCl2, 2 mM CaCl2, 10 mM HEPES, 30 Glucose, pH 7.4. The internal solution consists of (mM): 135 mM CsMeSO4, 1 MgCl2, 10 CsCl, 5 EGTA, 10 HEPES, pH 7.4, or 135 mM CsCl, 2 MgCl2, 3 MgATP, 2 Na2ATP, 1 Na2GTP, 5 EGTA, 10 HEPES, pH 7.4. Upon insertion of the pipette tip into the bath, the series resistance is noted (acceptable range is between 1-4 megaohm). The junction potential between the pipette and bath solutions is zeroed on the amplifier. The cell is then patched, the patch broken, and, after compensation for series resistance (>=80%), the voltage protocol is applied while recording the whole cell Ca2+ current response. Voltage protocols: (1) −80 mV holding potential every 20 seconds pulse to −20 mV for 40 msec duration; the effectiveness of the drug in inhibiting the current mediated by the channel is measured directly from measuring the reduction in peak current amplitude initiated by the voltage shift from −80 mV to −20 mV; (2). −100 mV holding potential every 15 seconds pulse to −20 mV for 40 msec duration; the effectiveness of the drug in inhibiting the current mediated by the channel is measured directly from measuring the reduction in peak current amplitude initiated by the shift in potential from −100 mV to […]. The difference in block at the two holding potentials was used to determine the effect of drug at differing levels of inactivation induced by the level of resting state potential of the cells. After obtaining control baseline calcium currents, extracellular solutions containing increasing concentrations of a test compound are washed on. Once steady state inhibition at a given compound concentration is reached, a higher concentration of compound is applied. % inhibition of the peak inward control Ca2+ current during the depolarizing step to −20 mV is plotted as a function of compound concentration.

[3] = target: T3, Cav3.2 (T-type channel alpha-1H) (Homo sapiens, UniProt O95180); test: T-type calcium channel voltage-clamp assay, Cav3.2; type: cell-based; settings: read-out: Cav 3.2 IC50
T3 construct: expressed in transfected cells; host or cells: HEK 293
T3 sequence (O95180 whole entry): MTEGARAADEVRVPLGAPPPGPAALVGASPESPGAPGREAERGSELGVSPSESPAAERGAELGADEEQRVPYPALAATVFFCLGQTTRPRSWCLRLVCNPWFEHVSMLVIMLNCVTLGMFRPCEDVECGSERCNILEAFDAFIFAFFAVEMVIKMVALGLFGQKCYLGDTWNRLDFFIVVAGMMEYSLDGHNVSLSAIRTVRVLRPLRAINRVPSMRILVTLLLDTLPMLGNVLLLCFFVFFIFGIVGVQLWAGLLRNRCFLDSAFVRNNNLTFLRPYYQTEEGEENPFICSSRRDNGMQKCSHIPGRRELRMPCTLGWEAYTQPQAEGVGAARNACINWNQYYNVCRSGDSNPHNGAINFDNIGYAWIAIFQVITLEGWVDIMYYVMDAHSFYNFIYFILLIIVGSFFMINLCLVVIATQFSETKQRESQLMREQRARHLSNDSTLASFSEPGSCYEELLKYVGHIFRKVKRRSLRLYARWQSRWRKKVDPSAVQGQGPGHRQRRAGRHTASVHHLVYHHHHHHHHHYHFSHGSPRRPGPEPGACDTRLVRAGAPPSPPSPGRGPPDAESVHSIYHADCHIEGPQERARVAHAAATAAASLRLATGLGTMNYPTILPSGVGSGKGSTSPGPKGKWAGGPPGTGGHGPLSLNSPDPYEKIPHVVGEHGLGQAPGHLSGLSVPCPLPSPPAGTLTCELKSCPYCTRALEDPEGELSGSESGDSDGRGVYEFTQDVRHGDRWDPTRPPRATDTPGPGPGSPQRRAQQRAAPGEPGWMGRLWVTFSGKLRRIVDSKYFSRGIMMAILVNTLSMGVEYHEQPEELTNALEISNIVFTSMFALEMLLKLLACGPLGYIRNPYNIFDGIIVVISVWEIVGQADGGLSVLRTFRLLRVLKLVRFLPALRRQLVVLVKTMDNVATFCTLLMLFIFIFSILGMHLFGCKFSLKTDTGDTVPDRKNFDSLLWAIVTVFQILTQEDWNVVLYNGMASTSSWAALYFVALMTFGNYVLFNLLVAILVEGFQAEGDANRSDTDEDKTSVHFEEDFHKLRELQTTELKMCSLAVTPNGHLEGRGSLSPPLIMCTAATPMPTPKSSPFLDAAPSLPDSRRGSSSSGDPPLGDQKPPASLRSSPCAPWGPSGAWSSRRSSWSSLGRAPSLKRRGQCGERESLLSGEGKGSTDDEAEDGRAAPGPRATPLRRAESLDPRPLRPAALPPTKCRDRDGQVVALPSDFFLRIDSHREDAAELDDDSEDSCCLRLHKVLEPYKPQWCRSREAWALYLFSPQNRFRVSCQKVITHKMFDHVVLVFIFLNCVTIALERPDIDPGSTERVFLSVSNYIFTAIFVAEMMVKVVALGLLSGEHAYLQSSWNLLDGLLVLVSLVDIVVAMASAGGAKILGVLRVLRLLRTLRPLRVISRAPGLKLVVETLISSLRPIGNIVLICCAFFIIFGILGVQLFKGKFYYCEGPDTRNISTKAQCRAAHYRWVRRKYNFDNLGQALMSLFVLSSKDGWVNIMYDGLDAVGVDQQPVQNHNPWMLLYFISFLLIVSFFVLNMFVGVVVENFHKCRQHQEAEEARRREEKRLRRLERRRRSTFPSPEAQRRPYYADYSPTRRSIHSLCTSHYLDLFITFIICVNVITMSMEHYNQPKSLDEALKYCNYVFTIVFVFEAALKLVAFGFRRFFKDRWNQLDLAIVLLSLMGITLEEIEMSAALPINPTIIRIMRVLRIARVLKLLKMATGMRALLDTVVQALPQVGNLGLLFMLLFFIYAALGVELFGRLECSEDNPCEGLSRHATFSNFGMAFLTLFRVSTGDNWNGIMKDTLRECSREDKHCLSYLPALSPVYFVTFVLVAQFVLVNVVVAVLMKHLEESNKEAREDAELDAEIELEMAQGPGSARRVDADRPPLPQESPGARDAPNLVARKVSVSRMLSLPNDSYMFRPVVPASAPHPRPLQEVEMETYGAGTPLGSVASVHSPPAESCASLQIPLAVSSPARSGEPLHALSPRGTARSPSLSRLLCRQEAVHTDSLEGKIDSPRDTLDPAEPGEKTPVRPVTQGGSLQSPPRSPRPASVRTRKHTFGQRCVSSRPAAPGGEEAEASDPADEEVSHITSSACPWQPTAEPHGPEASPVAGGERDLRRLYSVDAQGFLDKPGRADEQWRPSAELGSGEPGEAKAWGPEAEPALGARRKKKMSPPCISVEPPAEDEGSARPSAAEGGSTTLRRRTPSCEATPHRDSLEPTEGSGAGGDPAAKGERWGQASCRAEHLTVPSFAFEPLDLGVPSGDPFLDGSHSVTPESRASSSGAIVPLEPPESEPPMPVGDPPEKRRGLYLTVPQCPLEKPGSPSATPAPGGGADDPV
Procedure: as §1, §2

[4] = tested on: T-type over L-type channels; settings: cited from earlier work

Row | inhibition at 10 µM [1] | inhibition at 30 µM [1] | IC50 [1] | IC50 [2] | IC50 [3] | Compound | selective for T-type over L-type channels [4]
1 | 101% | 104% | 1480 nM | 490 nM | 800 nM | CC(C)(C)c1cc(N2CCN(C(=O)c3ccc(OCC(F)(F)F)nc3)CC2)cc(C(C)(C)C)c1 [Compound 47, (4-(3,5-di-tert-butylphenyol)piperazin-1-yl)(6-(2,2,2-trifluoroethoxy)pyridin-3-yl)methanone] | –
2 | 103% | 103% | 1480 nM | 370 nM | 610 nM | CC(C)(C)c1cc(N2CCN(C(=O)c3ccccc3)CC2)cc(C(C)(C)C)c1 [Compound 48, (4-(3,5-di-tert-butylphenyl)piperazin-1-yl)(phenyl)methanone] | –
3 | 102% | 105% | 1660 nM | 1520 nM | 1880 nM | Cc1cccc(C(=O)N2CCN(c3cc(C(C)(C)C)cc(C(C)(C)C)c3)CC2)n1 [Compound 49, (4-(3,5-di-tert-butylphenyl)piperazin-1-yl)(6-methylpyridin-2-yl)methanone] | –
4 | – | – | – | – | – | COCC(=O)O[C@]1(CCN(C)CCCc2nc3ccccc3[nH]2)CCc2cc(F)ccc2[C@@H]1C(C)C [Mibefradil] | 10-30 fold
